# Molecular target: T1, GLP-1R (Homo sapiens, UniProt P43220)
# T1 construct: host or cells: CHO cells
# Experiment: GLP-1R activation cAMP assay (Assay 1 or Assay 2)
# Type: cell-based
# Conditions: cAMP increase in CHO cells stably expressing GLP-1R; compounds run on one of the two cAMP assays
# Procedure, shortened: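 CHO cells stably expressing human GLP-1R were incubated 1 h in HBSS/20 mM HEPES/0.1% BSA, then exposed to 10-point agonist dilutions for 30 min at 37 °C. cAMP increase was measured with an HTRF Gs dynamic kit; EC50 from sigmoidal fit of response versus log concentration.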
# T1 sequence (P43220 24-463): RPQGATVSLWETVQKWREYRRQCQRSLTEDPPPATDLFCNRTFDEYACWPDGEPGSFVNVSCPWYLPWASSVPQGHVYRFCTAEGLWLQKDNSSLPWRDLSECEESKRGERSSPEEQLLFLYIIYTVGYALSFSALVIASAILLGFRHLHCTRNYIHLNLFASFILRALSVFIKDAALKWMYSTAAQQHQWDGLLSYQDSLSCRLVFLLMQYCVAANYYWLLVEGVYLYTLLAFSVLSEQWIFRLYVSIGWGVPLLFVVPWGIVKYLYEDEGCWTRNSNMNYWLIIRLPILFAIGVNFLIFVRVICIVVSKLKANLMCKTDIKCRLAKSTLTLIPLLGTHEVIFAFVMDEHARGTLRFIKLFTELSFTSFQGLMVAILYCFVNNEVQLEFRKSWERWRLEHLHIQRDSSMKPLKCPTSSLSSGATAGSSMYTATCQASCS
row,SMILES,EC50
1,"CCOc1nnc(COc2nc(-c3cc(F)c(Cc4nc5c(F)cc(C(=O)O)cc5n4[C@@H]4COCC4(C)C)cc3F)ccc2F)s1 [Example 423, (S)-1-(4,4-dimethyltetrahydrofuran-3-yl)-2-(4-(6-((5-ethoxy-1,3,4-thiadiazol-2-yl)methoxy)-5-fluoropyridin-2-yl)-2,5-difluorobenzyl)-4-fluoro-1H-benzo[d]imidazole-6-carboxylic acid]",0.023 nM
2,"O=C(O)c1ccc2nc(Cc3cc(F)c(-c4cccc(OCc5cnc(Cl)s5)n4)cc3F)n(C[C@@H]3CCO3)c2c1 [Example 20, (S)-2-(4-(6-((2-chlorothiazol-5-yl)methoxy)pyridin-2-yl)-2,5-difluorobenzyl)-1-(oxetan-2-ylmethyl)-1H-benzo[d]imidazole-6-carboxylic acid]",0.33 nM
3,"COc1nnc(COc2cccc(-c3cc(F)c(Cc4nc5c(F)cc(C(=O)O)cc5n4[C@@H]4COCC4(C)C)cc3F)n2)s1 [Example 345, (S)-2-(2,5-difluoro-4-(6-((5-methoxy-1,3,4-thiadiazol-2-yl)methoxy)pyridin-2-yl)benzyl)-1-(4,4-dimethyltetrahydrofuran-3-yl)-4-fluoro-1H-benzo[d]imidazole-6-carboxylic acid]",0.027 nM
4,"Cn1cc(C#Cc2ccc(COc3cccc(-c4cc(F)c(Cc5nc6ccc(C(=O)O)cc6n5C[C@@H]5CCO5)cc4F)n3)c(Cl)n2)cn1 [Example 363, (S)-2-(4-(6-((2-chloro-6-((1-methyl-1H-pyrazol-4-yl)ethynyl)pyridin-3-yl)methoxy)pyridin-2-yl)-2,5-difluorobenzyl)-1-(oxetan-2-ylmethyl)-1H-benzo[d]imidazole-6-carboxylic acid]",0.295 nM
5,"Cc1cc(Cc2nc3ccc(C(=O)O)cc3n2[C@@H]2COCC2(C)C)c(Cl)cc1-c1cccc(OCc2ncc(C(C)(F)F)s2)n1 [Example 428, (S)-2-(2-chloro-4-(6-((5-(1,1-difluoroethyl)thiazol-2-yl)methoxy)pyridin-2-yl)-5-methylbenzyl)-1-(4,4-dimethyltetrahydrofuran-3-yl)-1H-benzo[d]imidazole-6-carboxylic acid]",3.63 nM
6,"NC(=O)c1ccc(COc2nccc(-c3cc(F)c(Cc4nc5ccc(C(=O)O)cc5n4C[C@@H]4CCO4)cc3F)n2)cn1 [Example 222, (S)-2-(4-(2-((6-carbamoylpyridin-3-yl)methoxy)pyrimidin-4-yl)-2,5-difluorobenzyl)-1-(oxetan-2-ylmethyl)-1H-benzo[d]imidazole-6-carboxylic acid]",3.59 nM
7,"Cn1cc(C#Cc2ccc(COc3nc(-c4cc(F)c(Cc5nc6c(F)cc(C(=O)O)cc6n5C[C@@H]5CCO5)cc4F)ccc3F)cn2)cn1 [Example 295, (S)-2-(2,5-difluoro-4-(5-fluoro-6-((6-((1-methyl-1H-pyrazol-4-yl)ethynyl)pyridin-3-yl)methoxy)pyridin-2-yl)benzyl)-4-fluoro-1-(oxetan-2-ylmethyl)-1H-benzo[d]imidazole-6-carboxylic acid]",0.202 nM
8,"O=C(O)c1ccc2nc(Cc3cc(F)c(-c4cccc(OCc5ccc(C#Cc6cn[nH]c6)nc5)n4)cc3F)n(C[C@@H]3CCO3)c2c1 [Example 438, (S)-2-(4-(6-((6-((1H-pyrazol-4-yl)ethynyl)pyridin-3-yl)methoxy)pyridin-2-yl)-2,5-difluorobenzyl)-1-(oxetan-2-ylmethyl)-1H-benzo[d]imidazole-6-carboxylic acid]",0.335 nM
9,"O=C(O)c1ccc2nc(Cc3cc(F)c(-c4cccc(OCc5ncc(C#Cc6cncs6)s5)n4)cc3F)n(C[C@@H]3CCO3)c2c1 [Example 116, (S)-2-(2,5-difluoro-4-(6-((5-(thiazol-5-ylethynyl)thiazol-2-yl)methoxy)pyridin-2-yl)benzyl)-1-(oxetan-2-ylmethyl)-1H-benzo[d]imidazole-6-carboxylic acid]",0.15 nM
10,"Cn1nccc1C#Cc1ccc(COc2cccc(-c3cc(F)c(Cc4nc5ccc(C(=O)O)cc5n4C[C@@H]4CCO4)cc3F)n2)c(F)c1 [Example 135, (S)-2-(2,5-difluoro-4-(6-((2-fluoro-4-((1-methyl-1H-pyrazol-5-yl)ethynyl)benzyl)oxy)pyridin-2-yl)benzyl)-1-(oxetan-2-ylmethyl)-1H-benzo[d]imidazole-6-carboxylic acid]",0.34 nM
11,"COc1nnc(COc2nc(-c3cc(F)c(Cc4nc5ccc(C(=O)O)cc5n4CC4(CF)CC4)c(F)c3F)ccc2F)s1 [Example 368, 1-((1-(fluoromethyl)cyclopropyl)methyl)-2-(2,3,6-trifluoro-4-(5-fluoro-6-((5-methoxy-1,3,4-thiadiazol-2-yl)methoxy)pyridin-2-yl)benzyl)-1H-benzo[d]imidazole-6-carboxylic acid]",0.712 nM
12,"Cn1cc(-c2cnc(COc3cccc(-c4cc(F)c(Cc5nc6ccc(C(=O)O)cc6n5C[C@@H]5CCO5)cc4F)n3)s2)nn1 [Example 89, (S)-2-(2,5-difluoro-4-(6-((5-(1-methyl-1H-1,2,3-triazol-4-yl)thiazol-2-yl)methoxy)pyridin-2-yl)benzyl)-1-(oxetan-2-ylmethyl)-1H-benzo[d]imidazole-6-carboxylic acid]",1.86 nM
13,"O=C(O)c1ccc2nc(Cc3cc(F)c(-c4cccc(OCc5ncc(-c6cnn(C7CC7)c6)s5)n4)cc3F)n(C[C@@H]3CCO3)c2c1 [Example 90, (S)-2-(4-(6-((5-(1-cyclopropyl-1H-pyrazol-4-yl)thiazol-2-yl)methoxy)pyridin-2-yl)-2,5-difluorobenzyl)-1-(oxetan-2-ylmethyl)-1H-benzo[d]imidazole-6-carboxylic acid]",0.21 nM
14,"O=C(O)c1ccc2nc(Cc3cc(F)c(-c4cccc(OCc5ncc(-c6ccccn6)s5)n4)cc3F)n(C[C@@H]3CCO3)c2c1 [Example 107, (S)-2-(2,5-difluoro-4-(6-((5-(pyridin-2-yl)thiazol-2-yl)methoxy)pyridin-2-yl)benzyl)-1-(oxetan-2-ylmethyl)-1H-benzo[d]imidazole-6-carboxylic acid]",0.31 nM
15,"O=C(O)c1ccc2nc(Cc3cc(F)c(-c4cccc(OCc5nc6c(s5)CCC6)n4)cc3F)n(C[C@@H]3CCO3)c2c1 [Example 332, (S)-2-(4-(6-((5,6-dihydro-4H-cyclopenta[d]thiazol-2-yl)methoxy)pyridin-2-yl)-2,5-difluorobenzyl)-1-(oxetan-2-ylmethyl)-1H-benzo[d]imidazole-6-carboxylic acid]",0.109 nM
16,"Cn1ncc2cc(COc3cccc(-c4cc(F)c(Cc5nc6ccc(C(=O)O)cc6n5C[C@@H]5CCO5)cc4F)n3)sc21 [Example 230, 2-[[2,5-difluoro-4-[6-[(1-methylthieno[2,3-c]pyrazol-5-yl)methoxy]-2-pyridyl]phenyl]methyl]-3-[[(2S)-oxetan-2-yl]methyl]benzimidazole-5-carboxylic acid]",0.33 nM
17,"O=C(O)c1ccc2nc(Cc3cc(F)c(-c4cccc(OCc5cnc(Br)s5)n4)cc3F)n(C[C@@H]3CCO3)c2c1 [Example 21, (S)-2-(4-(6-((2-bromothiazol-5-yl)methoxy)pyridin-2-yl)-2,5-difluorobenzyl)-1-(oxetan-2-ylmethyl)-1H-benzo[d]imidazole-6-carboxylic acid]",0.41 nM
18,"COc1nnc(COc2cccc(-c3cc(F)c(Cc4nc5c(F)cc(C(=O)O)cc5n4CC4(C(F)F)CC4)cc3F)n2)s1 [Example 275, 2-(2,5-difluoro-4-(6-((5-methoxy-1,3,4-thiadiazol-2-yl)methoxy)pyridin-2-yl)benzyl)-1-((1-(difluoromethyl)cyclopropyl)methyl)-4-fluoro-1H-benzo[d]imidazole-6-carboxylic acid]",0.372 nM
19,"CC1(C)COCC1n1c(Cc2cc(F)c(-c3cccc(OCc4ncc(C(F)(F)F)s4)n3)cc2F)nc2c(F)cc(C(=O)O)cc21 (stereo not drawn) [Example 437, 2-(2,5-difluoro-4-(6-((5-(trifluoromethyl)thiazol-2-yl)methoxy)pyridin-2-yl)benzyl)-1-(4,4-dimethyltetrahydrofuran-3-yl)-4-fluoro-1H-benzo[d]imidazole-6-carboxylic acid]",0.105 nM
20,"Cc1nnc(COc2cccc(-c3cc(F)c(Cc4nc5ccc(C(=O)O)cc5n4[C@@H]4COCC4(C)C)cc3F)n2)s1 [Example 290, (S)-2-(2,5-difluoro-4-(6-((5-methyl-1,3,4-thiadiazol-2-yl)methoxy)pyridin-2-yl)benzyl)-1-(4,4-dimethyltetrahydrofuran-3-yl)-1H-benzo[d]imidazole-6-carboxylic acid]",0.155 nM
21,"Cn1cc(-c2ncc(COc3cccc(-c4cc(F)c(Cc5nc6ccc(C(=O)O)cc6n5C[C@@H]5CCO5)cc4F)n3)s2)cn1 [Example 355, (S)-2-(2,5-difluoro-4-(6-((2-(1-methyl-1H-pyrazol-4-yl)thiazol-5-yl)methoxy)pyridin-2-yl)benzyl)-1-(oxetan-2-ylmethyl)-1H-benzo[d]imidazole-6-carboxylic acid]",0.355 nM
22,"CC(=O)N1CC(Oc2nnc(COc3cccc(-c4cc(F)c(Cc5nc6ccc(C(=O)O)cc6n5C[C@@H]5CCO5)cc4F)n3)s2)C1 [Example 348, (S)-2-(4-(6-((5-((1-acetylazetidin-3-yl)oxy)-1,3,4-thiadiazol-2-yl)methoxy)pyridin-2-yl)-2,5-difluorobenzyl)-1-(oxetan-2-ylmethyl)-1H-benzo[d]imidazole-6-carboxylic acid]",1.87 nM
23,"Cc1nnc(COc2cccc(-c3cc(F)c(Cc4nc5c(F)cc(C(=O)O)cc5n4[C@@H]4COCC4(C)C)cc3F)n2)s1 [Example 283, (S)-2-(2,5-difluoro-4-(6-((5-methyl-1,3,4-thiadiazol-2-yl)methoxy)pyridin-2-yl)benzyl)-1-(4,4-dimethyltetrahydrofuran-3-yl)-4-fluoro-1H-benzo[d]imidazole-6-carboxylic acid]",0.109 nM
24,"NC(=O)c1csc(COc2cccc(-c3cc(F)c(Cc4nc5ccc(C(=O)O)cc5n4C[C@@H]4CCO4)cc3F)n2)n1 [Example 5, (S)-2-(4-(6-((4-carbamoylthiazol-2-yl)methoxy)pyridin-2-yl)-2,5-difluorobenzyl)-1-(oxetan-2-ylmethyl)-1H-benzo[d]imidazole-6-carboxylic acid]",0.5 nM
